Test results as given in patent publication US11312712B2, “Azabenzimidazoles and their use as AMPA receptor modulators” (Janssen Pharmaceutica NV, priority 2015, dated 2022).

Each molecule was assayed against GluA1o-γ8 (GRIA1o-CACNG8 fusion construct) (Homo sapiens (Human), UniProt P42261+Q8WXS5) (assay: Calcium flux assay (FLIPR), inhibition of TARP γ8 dependent AMPA receptor activity). Conditions: GluA1o-γ8 (GRIA1o-CACNG8 fusion) in HEK293 cells, calcium flux after 15 μM glutamate.
GluA1o-γ8 (GRIA1o-CACNG8 fusion construct), sequence (P42261 other isoform, or with tags, fused parts or gaps): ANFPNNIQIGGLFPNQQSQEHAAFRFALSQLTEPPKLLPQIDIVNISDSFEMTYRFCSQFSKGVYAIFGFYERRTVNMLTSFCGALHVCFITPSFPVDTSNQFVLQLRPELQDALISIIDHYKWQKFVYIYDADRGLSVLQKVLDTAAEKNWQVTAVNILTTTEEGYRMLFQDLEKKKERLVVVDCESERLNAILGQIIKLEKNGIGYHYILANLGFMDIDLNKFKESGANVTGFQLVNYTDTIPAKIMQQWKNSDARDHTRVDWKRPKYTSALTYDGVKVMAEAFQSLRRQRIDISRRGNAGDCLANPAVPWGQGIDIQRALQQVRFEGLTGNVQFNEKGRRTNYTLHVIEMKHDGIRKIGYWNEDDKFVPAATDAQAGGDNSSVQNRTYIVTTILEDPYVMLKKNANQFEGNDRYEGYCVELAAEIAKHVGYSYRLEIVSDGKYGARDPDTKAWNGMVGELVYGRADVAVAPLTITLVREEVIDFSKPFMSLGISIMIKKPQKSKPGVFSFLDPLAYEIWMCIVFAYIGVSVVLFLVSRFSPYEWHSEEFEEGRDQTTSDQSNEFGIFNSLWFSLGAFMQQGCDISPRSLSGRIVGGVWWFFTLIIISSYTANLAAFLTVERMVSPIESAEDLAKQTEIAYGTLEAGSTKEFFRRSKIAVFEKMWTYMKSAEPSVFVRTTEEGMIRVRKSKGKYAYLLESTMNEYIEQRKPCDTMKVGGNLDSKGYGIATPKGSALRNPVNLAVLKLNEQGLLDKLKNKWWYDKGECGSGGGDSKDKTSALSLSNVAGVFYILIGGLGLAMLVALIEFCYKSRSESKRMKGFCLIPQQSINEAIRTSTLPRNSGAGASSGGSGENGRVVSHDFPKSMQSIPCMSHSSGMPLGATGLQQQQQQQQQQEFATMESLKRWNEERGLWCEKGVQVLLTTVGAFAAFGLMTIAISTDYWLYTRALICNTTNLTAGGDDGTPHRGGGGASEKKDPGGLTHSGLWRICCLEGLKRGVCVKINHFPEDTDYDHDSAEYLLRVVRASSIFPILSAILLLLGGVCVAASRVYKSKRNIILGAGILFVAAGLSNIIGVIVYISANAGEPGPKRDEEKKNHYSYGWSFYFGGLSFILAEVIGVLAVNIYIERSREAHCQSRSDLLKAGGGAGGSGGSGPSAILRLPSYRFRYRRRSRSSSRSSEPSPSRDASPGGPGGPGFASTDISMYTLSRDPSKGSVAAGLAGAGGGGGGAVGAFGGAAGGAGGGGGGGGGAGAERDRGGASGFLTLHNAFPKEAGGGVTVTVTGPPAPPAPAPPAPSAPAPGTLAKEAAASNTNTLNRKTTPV
Assay type: cell-based
Method in brief: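 Glutamate (15 μM) was added to a stable HEK293 line carrying the GluA1o–γ8 fusion, which had been preincubated with compound and calcium dye in HEPES buffer, pH 7.4. Normalized FLIPR fluorescence (no compound vs 10 μM CP465022) was fitted with four parameters; pIC50 is the midpoint's negative log.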
Molecule `Fc1ccc(-c2nc3ccc(C(F)(F)F)nc3n2-c2ccc3[nH]ncc3c2)cc1` [Example 110, 2-(4-Fluorophenyl)-3-(1H-indazol-5-yl)-5-(trifluoromethyl)imidazo[4,5-b]pyridine] has an IC50 of 0.316 nM.
For `O=c1[nH]c2ccc(-n3c(-c4ccccc4)nc4ccc(O)nc43)cc2s1` [Example 111, 6-(5-Hydroxy-2-phenyl-imidazo[4,5-b]pyridin-3-yl)-3H-1,3-benzothiazol-2-one], the IC50 was 15.8 nM.
Work on `Fc1ccc(-c2nc3cccnc3n2-c2cnc3[nH]ncc3c2)cc1` [Example 112, 2-(4-Fluorophenyl)-3-(1H-pyrazolo[3,4-b]pyridin-5-yl)imidazo[4,5-b]pyridine] yielded an IC50 of 398 nM.
In the case of `FC(F)(F)Cc1nc2ccc(C(F)(F)F)nc2n1-c1ccc2[nH]ncc2c1` [Example 113, 3-(1H-Indazol-5-yl)-2-(2,2,2-trifluoroethyl)-5-(trifluoromethyl)imidazo[4,5-b]pyridine], the IC50 is reported as 251 nM.
`CCOc1nc2ccc(C(F)(F)F)nc2n1-c1ccc2[nH]ncc2c1` [Example 114, 2-Ethoxy-3-(1H-indazol-5-yl)-5-(trifluoromethyl)imidazo[4,5-b]pyridine] was tested, and the IC50 was 12.6 nM.
Molecule `OC1(c2nc3ccc(C(F)(F)F)nc3n2-c2ccc3[nH]ncc3c2)CC1` [Example 115, 1-[3-(1H-Indazol-5-yl)-5-(trifluoromethyl)imidazo[4,5-b]pyridin-2-yl]cyclopropanol] has an IC50 of 200 nM.
For `CC(F)(F)c1nc2ccc(C(F)(F)F)nc2n1-c1ccc2[nH]ncc2c1` [Example 116, 2-(1,1-Difluoroethyl)-3-(1H-indazol-5-yl)-5-(trifluoromethyl)imidazo[4,5-b]pyridine], the IC50 was 2 nM.
Molecule `CC(C)(C)c1ccc2nc(-c3ccc(F)cc3)n(-c3ccc4[nH]ncc4c3)c2n1` [Example 118, 5-tert-Butyl-2-(4-fluorophenyl)-3-(1H-indazol-5-yl)imidazo[4,5-b]pyridine] has an IC50 of 0.158 nM.
`CC(C)c1ccc2nc(C3CCC3)n(-c3ccc4[nH]ncc4c3)c2n1` [Example 119, 2-Cyclobutyl-3-(1H-indazol-5-yl)-5-isopropyl-imidazo[4,5-b]pyridine] gave an IC50 of 0.0316 nM.
`CC(C)c1ccc2nc(-c3ccc(F)cc3)n(-c3ccc4[nH]ncc4c3)c2n1` [Example 120, 2-(4-Fluorophenyl)-3-(1H-indazol-5-yl)-5-isopropyl-imidazo[4,5-b]pyridine] was tested, and the IC50 was 0.0501 nM.
`Cc1cc(-c2nc3ccc(C(F)(F)F)nc3n2-c2ccc3[nH]ncc3c2)ccc1F` [Example 121, 2-(4-Fluoro-3-methyl-phenyl)-3-(1H-indazol-5-yl)-5-(trifluoromethyl)imidazo[4,5-b]pyridine] showed an IC50 of 0.501 nM.
`Cc1cccc(-c2nc3ccc(C(F)(F)F)nc3n2-c2ccc3[nH]ncc3c2)c1` [Example 122, 3-(1H-Indazol-5-yl)-2-(m-tolyl)-5-(trifluoromethyl)imidazo[4,5-b]pyridine] showed an IC50 of 0.316 nM.
For `Cc1ccc(-c2nc3ccc(C(F)(F)F)nc3n2-c2ccc3[nH]ncc3c2)cc1` [Example 123, 3-(1H-Indazol-5-yl)-2-(p-tolyl)-5-(trifluoromethyl)imidazo[4,5-b]pyridine], the IC50 was 3.98 nM.
`FC(F)(F)c1ccc2nc(-c3ccncc3)n(-c3ccc4[nH]ncc4c3)c2n1` [Example 124, 3-(1H-Indazol-5-yl)-2-(4-pyridyl)-5-(trifluoromethyl)imidazo[4,5-b]pyridine] was tested, and the IC50 was 12.6 nM.
Work on `FC(F)(F)c1nc2ccc(C3CC3)nc2n1-c1ccc2[nH]ncc2c1` [Example 125, 5-Cyclopropyl-3-(1H-indazol-5-yl)-2-(trifluoromethyl)imidazo[4,5-b]pyridine] yielded an IC50 of 0.794 nM.
In the case of `CN(C)C(=O)c1nc2ccc(C(F)(F)F)nc2n1-c1ccc2[nH]ncc2c1` [Example 126, 3-(1H-Indazol-5-yl)-N,N-dimethyl-5-(trifluoromethyl)imidazo[4,5-b]pyridine-2-carboxamide], the IC50 is reported as 794 nM.
`CNC(=O)c1nc2ccc(C(F)(F)F)nc2n1-c1ccc2[nH]ncc2c1` [Example 127, 3-(1H-Indazol-5-yl)-N-methyl-5-(trifluoromethyl)imidazo[4,5-b]pyridine-2-carboxamide] showed an IC50 of 794 nM.
In the case of `O=C(NC1CC1)c1nc2ccc(C(F)(F)F)nc2n1-c1ccc2[nH]ncc2c1` [Example 128, N-Cyclopropyl-3-(1H-indazol-5-yl)-5-(trifluoromethyl)imidazo[4,5-b]pyridine-2-carboxamide], the IC50 is reported as 501 nM.
`COc1nc2ccc(C(F)(F)F)nc2n1-c1ccc2[nH]ncc2c1` [Example 129, 3-(1H-Indazol-5-yl)-2-methoxy-5-(trifluoromethyl)imidazo[4,5-b]pyridine] showed an IC50 of 15.8 nM.
With `CCNc1nc2ccc(C(F)(F)F)nc2n1-c1ccc2[nH]ncc2c1` [Example 130, N-Ethyl-3-(1H-indazol-5-yl)-5-(trifluoromethyl)imidazo[4,5-b]pyridin-2-amine] the IC50 was 100 nM.
With `FC(F)(F)c1ccc2nc(NC3CCCCC3)n(-c3ccc4[nH]ncc4c3)c2n1` [Example 131, N-Cyclohexyl-3-(1H-indazol-5-yl)-5-(trifluoromethyl)imidazo[4,5-b]pyridin-2-amine] the IC50 was 158 nM.
In the case of `O=c1[nH]c2ccc(-n3c(C4CCC4)nc4ccc(C(F)(F)F)nc43)cc2s1` [Example 132, 6-[2-Cyclobutyl-5-(trifluoromethyl)imidazo[4,5-b]pyridin-3-yl]-3H-1,3-benzothiazol-2-one], the IC50 is reported as 0.0631 nM.
Molecule `Cc1cc(N2CCOCC2)c2nc(C3CCC3)n(-c3ccc4[nH]c(=O)sc4c3)c2n1` [Example 133, 6-(2-Cyclobutyl-5-methyl-7-morpholino-imidazo[4,5-b]pyridin-3-yl)-3H-1,3-benzothiazol-2-one] has an IC50 of 1 nM.
Molecule `O=c1[nH]c2ccc(-n3c(C(F)(F)F)nc4ccc(C(F)(F)F)nc43)cc2s1` [Example 134, 6-[2,5-Bis(trifluoromethyl)imidazo[4,5-b]pyridin-3-yl]-3H-1,3-benzothiazol-2-one] has an IC50 of 0.0794 nM.
With `Cc1ccnc2c1nc(C1CC1)n2-c1ccc2[nH]c(=O)sc2c1` [Example 135, 6-(2-Cyclopropyl-7-methyl-imidazo[4,5-b]pyridin-3-yl)-3H-1,3-benzothiazol-2-one] the IC50 was 79.4 nM.
Work on `Cc1cc(N2CCOCC2)c2nc(C3CC3)n(-c3ccc4[nH]c(=O)sc4c3)c2n1` [Example 136, 6-(2-Cyclopropyl-5-methyl-7-morpholino-imidazo[4,5-b]pyridin-3-yl)-3H-1,3-benzothiazol-2-one] yielded an IC50 of 5.01 nM.
For `Cc1cc(Cl)nc2c1nc(C1CCC1)n2-c1ccc2[nH]ncc2c1` [Example 137, 5-Chloro-2-cyclobutyl-3-(1H-indazol-5-yl)-7-methyl-imidazo[4,5-b]pyridine], the IC50 was 0.501 nM.
Work on `FC(F)(F)c1ccc2nc(C3CCC3)n(-c3cc(Br)c4[nH]ncc4c3)c2n1` [Example 138, 3-(7-Bromo-1H-indazol-5-yl)-2-cyclobutyl-5-(trifluoromethyl)imidazo[4,5-b]pyridine] yielded an IC50 of 0.02 nM.
For `Cc1ccc2nc(C(F)(F)F)n(-c3ccc4c(c3)CC(=O)N4)c2n1` [Example 139, 5-[5-Methyl-2-(trifluoromethyl)imidazo[4,5-b]pyridin-3-yl]indolin-2-one], the IC50 was 39.8 nM.
`O=C1Cc2cc(-n3c(C4CC4)nc4ccc(C(F)F)nc43)ccc2N1` [Example 140, 5-[2-Cyclopropyl-5-(difluoromethyl)imidazo[4,5-b]pyridin-3-yl]indolin-2-one] was tested, and the IC50 was 2.51 nM.
With `CC(C)c1nc2ccc(C(F)F)nc2n1-c1ccc2c(c1)CC(=O)N2` [Example 141, 5-[5-(Difluoromethyl)-2-isopropyl-imidazo[4,5-b]pyridin-3-yl]indolin-2-one] the IC50 was 1.26 nM.
In the case of `Cc1ccc2nc(C(F)(F)F)n(-c3ccc4[nH]c(=O)sc4c3)c2n1` [Example 142, 6-[5-Methyl-2-(trifluoromethyl)imidazo[4,5-b]pyridin-3-yl]-3H-1,3-benzothiazol-2-one], the IC50 is reported as 1.58 nM.
Molecule `Cc1ccc2nc(C3CC3)n(-c3ccc4[nH]c(=O)sc4c3)c2n1` [Example 143, 6-(2-Cyclopropyl-5-methyl-imidazo[4,5-b]pyridin-3-yl)-3H-1,3-benzothiazol-2-one] has an IC50 of 1 nM.
Work on `Cc1ccc2nc(C(C)C)n(-c3ccc4[nH]c(=O)sc4c3)c2n1` [Example 144, 6-(2-Isopropyl-5-methyl-imidazo[4,5-b]pyridin-3-yl)-3H-1,3-benzothiazol-2-one] yielded an IC50 of 1.58 nM.
With `Cc1ccc2nc(C3CCC3)n(-c3ccc4[nH]c(=O)sc4c3)c2n1` [Example 145, 6-(2-Cyclobutyl-5-methyl-imidazo[4,5-b]pyridin-3-yl)-3H-1,3-benzothiazol-2-one] the IC50 was 0.251 nM.
`Cc1ccc2nc(C(C)(F)F)n(-c3ccc4c(c3)CC(=O)N4)c2n1` [Example 146, 5-[2-(1,1-Difluoroethyl)-5-methyl-imidazo[4,5-b]pyridin-3-yl]indolin-2-one] showed an IC50 of 39.8 nM.
For `Cc1ccc2nc(C3CC3)n(-c3ccc4[nH]ncc4c3)c2n1` [Example 147, 2-Cyclopropyl-3-(1H-indazol-5-yl)-5-methyl-imidazo[4,5-b]pyridine], the IC50 was 10 nM.
Molecule `Cc1ccc2nc(C(C)C)n(-c3ccc4[nH]ncc4c3)c2n1` [Example 148, 3-(1H-Indazol-5-yl)-2-isopropyl-5-methyl-imidazo[4,5-b]pyridine] has an IC50 of 7.94 nM.
`Cc1ccc2nc(C3CCC3)n(-c3ccc4[nH]ncc4c3)c2n1` [Example 149, 2-Cyclobutyl-3-(1H-indazol-5-yl)-5-methyl-imidazo[4,5-b]pyridine] gave an IC50 of 0.794 nM.
`Cc1ccc2nc(C(C)(F)F)n(-c3ccc4[nH]c(=O)sc4c3)c2n1` [Example 150, 6-[2-(1,1-Difluoroethyl)-5-methyl-imidazo[4,5-b]pyridin-3-yl]-3H-1,3-benzothiazol-2-one] was tested, and the IC50 was 1.58 nM.
`Cc1ccc2nc(C(F)(F)F)n(-c3ccc4[nH]ncc4c3)c2n1` [Example 151, 3-(1H-Indazol-5-yl)-5-methyl-2-(trifluoromethyl)imidazo[4,5-b]pyridine] showed an IC50 of 12.6 nM.
`Cc1ccc2nc(C(C)(F)F)n(-c3ccc4[nH]ncc4c3)c2n1` [Example 152, 2-(1,1-Difluoroethyl)-3-(1H-indazol-5-yl)-5-methyl-imidazo[4,5-b]pyridine] showed an IC50 of 39.8 nM.
